Measurements published in patent US12655116B2, “Substituted isophthalic acid diamides” (Bayer Aktiengesellschaft, priority 2020, dated 2026).

Assays:
ECHCG [1] = experiment: Post-emergence herbicidal action against ECHCG; assay type: in vivo, Echinochloa crus-galli
Summary of the method: (§1)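 Foliar application at one-leaf stage of formulated test compounds, aqueous spray at 600–800 l/ha with 0.2% wetting agent. Greenhouse, optimal conditions, ~3 weeks; damage scored visually in % relative to untreated plants.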

ALOMY [2] = experiment: Pre-emergence herbicidal action against ALOMY; assay type: in vivo, Alopecurus myosuroides; conditions: 80 g/ha, pre-emergence, scored visually after 3 weeks vs untreated controls (100% = plants have died, 0% = like control plants)
Summary of the method: (§2)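 Greenhouse pots of sandy loam held seeds covered with soil, onto which the compound was applied before emergence. An aqueous suspension or emulsion of WP or EC was used at 600 to 800 l/ha with 0.2% wetting agent. Percent damage was judged visually at 3 weeks.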

STEME [3] = experiment: Pre-emergence herbicidal action against STEME; assay type: in vivo, Stellaria media
Summary of the method: as §2

MATIN [4] = experiment: Pre-emergence herbicidal action against MATIN; assay type: in vivo, Matricaria inodora
Summary of the method: as §2

VERPE [5] = experiment: Pre-emergence herbicidal action against VERPE; assay type: in vivo, Veronica persica; conditions: dosage 80 g/ha
Summary of the method: as §2

PHBPU [6] = experiment: Post-emergence herbicidal action against PHBPU; assay type: in vivo, Pharbitis purpurea
Summary of the method: as §1

ABUTH [7] = experiment: Pre-emergence herbicidal action against ABUTH; assay type: in vivo, Abutilon theophrasti; conditions: for Pre-emergence action against ABUTH (herbicidal activity): 80 g/ha, scored visually after 3 weeks vs untreated controls (100% = plants have died, 0% = like control plants); for Pre-emergence action against ABUTH (herbicidal activity in percent): dosage 20 g/ha, scored visually after 3 weeks vs untreated controls, 100% = plants have died, 0% = like control plants
Summary of the method: as §2

LOLRI = experiment: Pre-emergence herbicidal action against LOLRI; assay type: in vivo, Lolium rigidum; conditions: 80 g/ha
Summary of the method: as §2

AVEFA [8] = experiment: Pre-emergence herbicidal action against AVEFA; assay type: in vivo, Avena fatua; conditions: 80 g/ha, pre-emergence
Summary of the method: as §2

DIGSA [9] = experiment: Pre-emergence herbicidal action against DIGSA; assay type: in vivo, Digitaria sanguinalis
Summary of the method: as §2

HORMU [10] = experiment: Pre-emergence herbicidal action against HORMU; assay type: in vivo, Hordeum murinum; conditions: 80 g/ha, pre-emergence
Summary of the method: as §2

SETVI [11] = experiment: Pre-emergence herbicidal action against SETVI; assay type: in vivo, Setaria viridis
Summary of the method: as §2

ECHCG [12] = experiment: Pre-emergence herbicidal action against ECHCG; assay type: in vivo, Echinochloa crus-galli; conditions: 80 g/ha
Summary of the method: as §2

STEME [13] = experiment: Post-emergence herbicidal action against STEME; assay type: in vivo, Stellaria media
Summary of the method: as §1

ALOMY [14] = experiment: Post-emergence herbicidal action against ALOMY; assay type: in vivo, Alopecurus myosuroides; conditions: dosage 20 g/ha, visual assessment about 3 weeks after treatment vs untreated controls
Summary of the method: as §1

DIGSA [15] = experiment: Post-emergence herbicidal action against DIGSA; assay type: in vivo, Digitaria sanguinalis; conditions: for Post-emergence action against DIGSA in %: 5 g/ha; for Post-emergence action against DIGSA: 20 g/ha
Summary of the method: as §1

AMARE [16] = experiment: Post-emergence herbicidal action against AMARE; assay type: in vivo, Amaranthus retroflexus; conditions: 20 g/ha, visual assessment about 3 weeks after treatment, 100% = plants have died, 0% = like control plants
Summary of the method: as §1

PHBPU [17] = experiment: Pre-emergence herbicidal action against PHBPU; assay type: in vivo, Pharbitis purpurea; conditions: dosage 80 g/ha
Summary of the method: as §2

ABUTH [18] = experiment: Post-emergence herbicidal action against ABUTH; assay type: in vivo, Abutilon theophrasti; conditions: visual assessment about 3 weeks after treatment vs untreated controls
Summary of the method: as §1

SETVI [19] = experiment: Post-emergence herbicidal action against SETVI; assay type: in vivo, Setaria viridis
Summary of the method: as §1

MATIN [20] = experiment: Post-emergence herbicidal action against MATIN; assay type: in vivo, Matricaria inodora
Summary of the method: as §1

AVEFA [21] = experiment: Post-emergence herbicidal action against AVEFA; assay type: in vivo, Avena fatua; conditions: 20 g/ha, visual assessment about 3 weeks after treatment, 100% = plants have died, 0% = like control plants
Summary of the method: as §1

VIOTR [22] = experiment: Pre-emergence herbicidal action against VIOTR; assay type: in vivo, Viola tricolor
Summary of the method: as §2

VERPE [23] = experiment: Post-emergence herbicidal action against VERPE; assay type: in vivo, Veronica persica; conditions: 20 g/ha
Summary of the method: as §1

POLCO = experiment: Pre-emergence herbicidal action against POLCO; assay type: in vivo, Polygonum convolvulus
Summary of the method: as §2

HORMU [24] = experiment: Post-emergence herbicidal action against HORMU; assay type: in vivo, Hordeum murinum; conditions: dosage 20 g/ha
Summary of the method: as §1

AMARE [25] = experiment: Pre-emergence herbicidal action against AMARE; assay type: in vivo, Amaranthus retroflexus
Summary of the method: as §2

VIOTR [26] = experiment: Post-emergence herbicidal action against VIOTR; assay type: in vivo, Viola tricolor
Summary of the method: as §1

[27] = 20 g/ha, scored visually after 3 weeks vs untreated controls, 100% = plants have died, 0% = like control plants
[28] = 80 g/ha, scored visually after 3 weeks vs untreated controls (100% = plants have died, 0% = like control plants)

## CCNC(=O)c1c(C(F)F)ccc(C(=O)Nc2nnnn2CC)c1SC [Example 2-88]
ECHCG [1]; dosage 5 g/ha
  Post-emergence action against ECHCG in %: 80%
ECHCG [1]; dosage 20 g/ha
  Post-emergence action against ECHCG in %: 80%
ALOMY [2]
  Pre-emergence action against ALOMY (herbicidal activity): 90%
STEME [3]; dosage 20 g/ha
  Pre-emergence action against STEME in %: 100%
STEME [3]; dosage 80 g/ha
  Pre-emergence action against STEME in %: 100%
MATIN [4]; dosage 20 g/ha
  Pre-emergence action against MATIN in %: 100%
MATIN [4]; dosage 80 g/ha
  Pre-emergence action against MATIN in %: 100%
VERPE [5]
  Pre-emergence action against VERPE in %: 100%
PHBPU [6]; dosage 5 g/ha
  Post-emergence action against PHBPU in %: 80%
PHBPU [6]; dosage 20 g/ha
  Post-emergence action against PHBPU in %: 90%
ABUTH [7]
  Pre-emergence action against ABUTH (herbicidal activity): 100%
  Pre-emergence action against ABUTH (herbicidal activity in percent): 100%
LOLRI
  Pre-emergence action against LOLRI in %: 80%
AVEFA [8]
  Pre-emergence action against AVEFA in %: 90%
DIGSA [9]; dosage 20 g/ha
  Pre-emergence action against DIGSA in %: 100%
DIGSA [9]; dosage 80 g/ha
  Pre-emergence action against DIGSA in %: 100%
HORMU [10]
  Pre-emergence action against HORMU in %: 80%
SETVI [11]; dosage 80 g/ha
  Pre-emergence action against SETVI in %: 100%
ECHCG [12]
  Pre-emergence action against ECHCG in %: 100%
STEME [13]; 20 g/ha
  Post-emergence action against STEME in %: 100%
STEME [13]; dosage 5 g/ha
  Post-emergence action against STEME in %: 90%
ALOMY [14]
  Post-emergence action against ALOMY in %: 80%
DIGSA [15]
  Post-emergence action against DIGSA in %: 90%
  Post-emergence action against DIGSA: 90%
AMARE [16]
  Post-emergence action at 20 g/ha against AMARE in %: 90%
PHBPU [17]
  Pre-emergence action against PHBPU in %: 90%
ABUTH [18]; dosage 5 g/ha
  Post-emergence action against ABUTH in %: 90%
ABUTH [18]; dosage 20 g/ha
  Post-emergence action against ABUTH in %: 90%
SETVI [19]; dosage 5 g/ha
  Post-emergence action against SETVI in %: 90%
SETVI [19]; dosage 20 g/ha
  Post-emergence action against SETVI in %: 100%
MATIN [20]; dosage 20 g/ha
  Post-emergence action against MATIN in %: 80%
AVEFA [21]
  Post-emergence action at 20 g/ha against AVEFA in %: 80%
VIOTR [22]; dosage 20 g/ha
  Pre-emergence action against VIOTR in %: 100%
VIOTR [22]; dosage 80 g/ha
  Pre-emergence action against VIOTR in %: 100%
VERPE [23]
  Post-emergence action against VERPE in %: 80%
POLCO; dosage 80 g/ha
  Pre-emergence action against POLCO in %: 90%
HORMU [24]
  Post-emergence action against HORMU in %: 80%
AMARE [25]; [27]
  Pre-emergence action against AMARE in %: 100%
AMARE [25]; [28]
  Pre-emergence action against AMARE in %: 100%
VIOTR [26]; 5 g/ha
  Post-emergence action against VIOTR in %: 80%
VIOTR [26]; 20 g/ha
  Post-emergence action against VIOTR in %: 90%

## CCn1nnnc1NC(=O)c1ccc(C(F)(F)F)c(C(=O)NC)c1C [Example 2-25]
ECHCG [1]; dosage 20 g/ha
  Post-emergence action against ECHCG in %: 80%
ALOMY [2]
  Pre-emergence action against ALOMY (herbicidal activity): 90%
STEME [3]; dosage 20 g/ha
  Pre-emergence action against STEME in %: 90%
STEME [3]; dosage 80 g/ha
  Pre-emergence action against STEME in %: 100%
MATIN [4]; dosage 20 g/ha
  Pre-emergence action against MATIN in %: 100%
MATIN [4]; dosage 80 g/ha
  Pre-emergence action against MATIN in %: 100%
VERPE [5]
  Pre-emergence action against VERPE in %: 100%
PHBPU [6]; dosage 5 g/ha
  Post-emergence action against PHBPU in %: 80%
PHBPU [6]; dosage 20 g/ha
  Post-emergence action against PHBPU in %: 90%
ABUTH [7]
  Pre-emergence action against ABUTH (herbicidal activity): 100%
  Pre-emergence action against ABUTH (herbicidal activity in percent): 100%
LOLRI
  Pre-emergence action against LOLRI in %: 80%
AVEFA [8]
  Pre-emergence action against AVEFA in %: 100%
DIGSA [9]; dosage 20 g/ha
  Pre-emergence action against DIGSA in %: 100%
DIGSA [9]; dosage 80 g/ha
  Pre-emergence action against DIGSA in %: 100%
HORMU [10]
  Pre-emergence action against HORMU in %: 90%
SETVI [11]; dosage 20 g/ha
  Pre-emergence action against SETVI in %: 100%
SETVI [11]; dosage 80 g/ha
  Pre-emergence action against SETVI in %: 100%
ECHCG [12]
  Pre-emergence action against ECHCG in %: 100%
STEME [13]; 20 g/ha
  Post-emergence action against STEME in %: 100%
STEME [13]; dosage 5 g/ha
  Post-emergence action against STEME in %: 90%
ALOMY [14]
  Post-emergence action against ALOMY in %: 90%
DIGSA [15]
  Post-emergence action against DIGSA in %: 80%
  Post-emergence action against DIGSA: 90%
PHBPU [17]
  Pre-emergence action against PHBPU in %: 80%
ABUTH [18]; dosage 5 g/ha
  Post-emergence action against ABUTH in %: 100%
ABUTH [18]; dosage 20 g/ha
  Post-emergence action against ABUTH in %: 100%
SETVI [19]; dosage 20 g/ha
  Post-emergence action against SETVI in %: 80%
MATIN [20]; dosage 5 g/ha
  Post-emergence action against MATIN in %: 90%
MATIN [20]; dosage 20 g/ha
  Post-emergence action against MATIN in %: 100%
AVEFA [21]
  Post-emergence action at 20 g/ha against AVEFA in %: 100%
VIOTR [22]; dosage 80 g/ha
  Pre-emergence action against VIOTR in %: 100%
VERPE [23]
  Post-emergence action against VERPE in %: 90%
POLCO; dosage 20 g/ha
  Pre-emergence action against POLCO in %: 100%
POLCO; dosage 80 g/ha
  Pre-emergence action against POLCO in %: 100%
HORMU [24]
  Post-emergence action against HORMU in %: 80%
AMARE [25]; [27]
  Pre-emergence action against AMARE in %: 100%
AMARE [25]; [28]
  Pre-emergence action against AMARE in %: 100%
VIOTR [26]; 5 g/ha
  Post-emergence action against VIOTR in %: 80%
VIOTR [26]; 20 g/ha
  Post-emergence action against VIOTR in %: 90%
